The source of these data is patent publication US20180022780A1, “STABILIZATION ADRENOMEDULLIN DERIVATIVES AND USE THEREOF” (priority 2014, published 2018).

Bridge positions count the residues as written; N and C are the ends. Square brackets hold non-standard residues; d marks the D form. Peptide text beside a SMILES is read from it. * marks the point of attachment. Palmitoyl = CCCCCCCCCCCCCCCC(=O)*; NMeK = CN[C@@H](CCCCN)C(=O)O; Dab = NCC[C@H](N)C(=O)O; Dap = NC[C@H](N)C(=O)O

T1 sequence (Q16602 23-461): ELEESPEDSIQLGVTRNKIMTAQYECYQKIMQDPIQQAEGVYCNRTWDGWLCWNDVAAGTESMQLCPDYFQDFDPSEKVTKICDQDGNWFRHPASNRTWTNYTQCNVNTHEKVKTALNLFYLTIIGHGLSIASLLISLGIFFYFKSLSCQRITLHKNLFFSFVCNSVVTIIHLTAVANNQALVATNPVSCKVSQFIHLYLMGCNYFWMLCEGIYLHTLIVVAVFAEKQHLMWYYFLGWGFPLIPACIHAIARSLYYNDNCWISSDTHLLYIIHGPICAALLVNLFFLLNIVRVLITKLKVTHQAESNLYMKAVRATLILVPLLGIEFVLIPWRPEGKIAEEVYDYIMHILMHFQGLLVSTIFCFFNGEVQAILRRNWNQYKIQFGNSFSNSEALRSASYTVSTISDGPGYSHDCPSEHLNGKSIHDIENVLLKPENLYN
T1 sequence (O60895 43-175): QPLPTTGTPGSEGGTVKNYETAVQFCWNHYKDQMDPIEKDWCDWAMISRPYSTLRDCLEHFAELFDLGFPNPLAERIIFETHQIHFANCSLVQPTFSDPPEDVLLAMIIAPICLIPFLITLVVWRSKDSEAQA

This experiment addresses T1, CLR fused to EYFP and RAMP2 fused to ECFP (Homo sapiens, UniProt O60895+Q16602).
T1 construct: EYFP; ECFP; expressed in transfected cells; host or cells: HEK-293 cells, transient co-transfection
Briefly: cAMP assay (CRE luciferase reporter, HEK-293 cells transiently co-transfected with CLR and RAMP2). The class given is cell-based. Particulars: Table 2, cAMP assay; HEK-293, CLR/RAMP2, CRE luciferase, 3 h stimulation, normalized to [G^14]ADM(14-52). On the procedure:
HEK-293 cells (human embryonic kidney cells) were cultured in Ham's F-12/DMEM (1/1; v/v) containing 15% FCS under humidified atmosphere at 37° C. and 5% CO2 in 75 cm^2 cell culture flasks.
Cells were cultured in 75 cm^2 flasks to 70-80% confluency. 45 μl Metafectene® Pro was diluted in 900 μl Ham's F-12/DMEM (1/1; v/v) and incubated for 20 min at room temperature. 9000 ng plasmid containing DNA of CLR fused to EYFP and 3000 ng plasmid containing DNA of RAMP2 fused to ECFP were dissolved in 900 μl Ham's F-12/DMEM (1/1; v/v). The plasmid solution was mixed with the Metafectene® Pro solution and incubated for 25 min at room temperature. Medium was removed from the cells and replaced by 6 ml Ham's F-12/DMEM (1/1; v/v) containing 15% FCS. After addition of transfection solution the cells were incubated for 3 h under humidified atmosphere at 37° C. and 5% CO2.
For the second transfection 45 μl Metafectene® Pro was diluted in 900 μl Ham's F-12/DMEM (1/1; v/v) and incubated for 20 min at room temperature. 12000 ng of pGL4.29[luc2P/CRE/Hygro] plasmid containing DNA for the luciferase reporter gene luc2P (with CRE promotor region) were dissolved in 900 μl Ham's F-12/DMEM (1/1; v/v). The plasmid solution was mixed with the Metafectene® Pro solution and incubated for 25 min at room temperature. Medium was removed from the cells and replaced by 6 ml Ham's F-12/DMEM (1/1; v/v) containing 15% FCS. After addition of transfection solution the cells were incubated under humidified atmosphere at 37° C. and 5% CO2 over night.
For the coating of 96-well-plates 50 μl of a Poly-D-Lysine solution (1 ml stock solution of Poly-D-Lysin-hydrobromid/10 ml DPBS) were pipetted in each well and incubated for 40 min. After removal of the Poly-D-Lysine each well was washed with 50 μl DPBS. Transiently transfected cells were detached from the cell culture flask by removal of the medium, twofold washing with 5 m1 DPBS and resuspending in 13 ml Ham's F-12/DMEM (1/1; v/v) containing 15% FCS. 90000 to 120000 cells in 150 μl Ham's F-12/DMEM (1/1; v/v) containing 15% FCS were seeded per well and the plates were incubated under humidified atmosphere at 37° C. and 5% CO2 over night.
For each ligand a serial dilution giving eight different concentrations was prepared using Ham's F-12/DMEM (1/1; v/v). Before stimulation the medium on the cells was replaced by 100 μl Ham's F-12/DMEM (1/1; v/v) and the plates were incubated for 1 h under humidified atmosphere at 37° C. and 5% CO2. For stimulation the medium was removed again and the cells were incubated for 3 h in 80 μl of ligand-solution under humidified atmosphere at 37° C. and 5% CO2. In addition 80 μl of a 5 μM forskolin solution (in Ham's F-12/DMEM (1/1; v/v)) was used as a positive control and 80 μl of Ham's F-12/DMEM (1/1; v/v) as a negative control. Each concentration and the controls were tested as triplicates.
After 3 h of stimulation, the solutions were removed and the cells were washed with 50 μl of Ham's F-12/DMEM (1/1; v/v) per well. After 10 min incubation in 30 μl of Ham's F-12/DMEM (1/1; v/v) at room temperature, 30 μl of luciferase-solution (ONE-Glo™ Luciferase Assay System) was added and the luminescence was directly measured using an Infinite M200 (Tecan).
Data analysis of the luminescence measurement was carried out with GraphPad Prism 5. Therefore the measured luminescence values of each plate were first corrected on the base of the respective average of forskolin stimulation. Afterwards they were normalized to [G^14]ADM(14-52) which was used as standard peptide in every assay. After correction and normalization data was analysed using non-linear regression giving dose-response curves for each tested ligand.
A word on the EC50: it is the midpoint of the concentration-response curve. Read a low EC50 as higher potency in that assay. In turn, `CC[C@H](C)[C@H](NC(=O)[C@H](CCC(N)=O)NC(=O)[C@H](Cc1c[nH]cn1)NC(=O)[C@H](C)NC(=O)[C@H](CC(C)C)NC(=O)[C@H](CCCCN)NC(=O)[C@H](CCC(N)=O)NC(=O)[C@@H](NC(=O)[C@@H](NC(=O)[C@@H]1CCNC(=O)C[C@H](NC(=O)CNC(=O)CN)C(=O)N[C@@H](CCCNC(=N)N)C(=O)N[C@@H](Cc2ccccc2)C(=O)NCC(=O)N[C@@H]([C@@H](C)O)C(=O)N1)[C@@H](C)O)C(C)C)C(=O)N[C@@H](Cc1ccc(O)cc1)C(=O)N[C@@H](CCC(N)=O)C(=O)N[C@@H](Cc1ccccc1)C(=O)N[C@H](C(=O)N[C@@H](CC(=O)O)C(=O)N[C@@H](CCCCN)C(=O)N[C@@H](CC(=O)O)C(=O)N[C@@H](CCCCN)C(=O)N[C@@H](CC(=O)O)C(=O)N[C@@H](CC(N)=O)C(=O)N[C@H](C(=O)N[C@@H](C)C(=O)N1CCC[C@H]1C(=O)N[C@@H](CCCNC(=N)N)C(=O)N[C@@H](CO)C(=O)N[C@@H](CCCCN)C(=O)N[C@H](C(=O)N[C@@H](CO)C(=O)N1CCC[C@H]1C(=O)N[C@@H](CCC(N)=O)C(=O)NCC(=O)N[C@@H](Cc1ccc(O)cc1)C(N)=O)[C@@H](C)CC)C(C)C)[C@@H](C)O` [Example 4, ((2S,5S,11S,14S,20S)-20-(2-(2-aminoacetamido)acetamido)-5-benzyl-2-(3-guanidinopropyl)-11-((R)-1-hydroxyethyl)-3,6,9,12,18,21-hexaoxo-1,4,7,10,13,17-hexaazacyclohenicosane-14-carbonyl)-L-threonyl-ADM(22-52)] (H-GGDRFGT[Dab]TVQKLAHQIYQFTDKDKDNVAPRSKISPQGY-NH2; lactam 3-8) yielded an EC50 of 21 nM. `CCCCCCCCCCCCCCCC(=O)NCCCC[C@H](N)C(=O)NCC(=O)N[C@H]1CNC(=O)CC[C@@H](C(=O)N[C@H](C(=O)N[C@H](C(=O)N[C@@H](CCC(N)=O)C(=O)N[C@@H](CCCCN)C(=O)N[C@@H](CC(C)C)C(=O)N[C@@H](C)C(=O)N[C@@H](Cc2c[nH]cn2)C(=O)N[C@@H](CCC(N)=O)C(=O)N[C@H](C(=O)N[C@@H](Cc2ccc(O)cc2)C(=O)N[C@@H](CCC(N)=O)C(=O)N[C@@H](Cc2ccccc2)C(=O)N[C@H](C(=O)N[C@@H](CC(=O)O)C(=O)N[C@@H](CCCCN)C(=O)N[C@@H](CC(=O)O)C(=O)N[C@@H](CCCCN)C(=O)N[C@@H](CC(=O)O)C(=O)N[C@@H](CC(N)=O)C(=O)N[C@H](C(=O)N[C@@H](C)C(=O)N2CCC[C@H]2C(=O)N[C@@H](CCCNC(=N)N)C(=O)N[C@@H](CO)C(=O)N(C)[C@@H](CCCCN)C(=O)N[C@H](C(=O)N[C@@H](CO)C(=O)N2CCC[C@H]2C(=O)N[C@@H](CCC(N)=O)C(=O)NCC(=O)N[C@@H](Cc2ccc(O)cc2)C(N)=O)[C@@H](C)CC)C(C)C)[C@@H](C)O)[C@@H](C)CC)C(C)C)[C@@H](C)O)NC(=O)[C@H]([C@@H](C)O)NC(=O)CNC(=O)[C@H](Cc2ccccc2)NC(=O)[C@H](CCCNC(=N)N)NC1=O` [Example 27, ((3S,9S,12S,15S,21S)-15-(2-((S)-2-amino-6-palmitamidohexanamido)acetamido)-9-benzyl-12-(3-guanidinopropyl)-3-((R)-1-hydroxyethyl)-2,5,8,11,14,18-hexaoxo-1,4,7,10,13,17-hexaazacyclohenicosane-21-carbonyl)-L-threonyl-[N-Me-K^46]ADM(22-52)] (H-K(Palmitoyl)G[Dap]RFGTETVQKLAHQIYQFTDKDKDNVAPRS[NMeK]ISPQGY-NH2; lactam 3-8) displayed an EC50 of 3.4 nM. As to `CC[C@H](C)[C@H](NC(=O)[C@H](CCC(N)=O)NC(=O)[C@H](Cc1c[nH]cn1)NC(=O)[C@H](C)NC(=O)[C@H](CC(C)C)NC(=O)[C@H](CCCCN)NC(=O)[C@H](CCC(N)=O)NC(=O)[C@@H](NC(=O)[C@@H](NC(=O)[C@@H]1CCNC(=O)CC[C@H](NC(=O)CNC(=O)CN)C(=O)N[C@@H](CCCNC(=N)N)C(=O)N[C@@H](Cc2ccccc2)C(=O)NCC(=O)N[C@@H]([C@@H](C)O)C(=O)N1)[C@@H](C)O)C(C)C)C(=O)N[C@@H](Cc1ccc(O)cc1)C(=O)N[C@@H](CCC(N)=O)C(=O)N[C@@H](Cc1ccccc1)C(=O)N[C@H](C(=O)N[C@@H](CC(=O)O)C(=O)N[C@@H](CCCCN)C(=O)N[C@@H](CC(=O)O)C(=O)N[C@@H](CCCCN)C(=O)N[C@@H](CC(=O)O)C(=O)N[C@@H](CC(N)=O)C(=O)N[C@H](C(=O)N[C@@H](C)C(=O)N1CCC[C@H]1C(=O)N[C@@H](CCCNC(=N)N)C(=O)N[C@@H](CO)C(=O)N[C@@H](CCCCN)C(=O)N[C@H](C(=O)N[C@@H](CO)C(=O)N1CCC[C@H]1C(=O)N[C@@H](CCC(N)=O)C(=O)NCC(=O)N[C@@H](Cc1ccc(O)cc1)C(N)=O)[C@@H](C)CC)C(C)C)[C@@H](C)O` [Example 10, ((2S,5S,11S,14S,21S)-21-(2-(2-aminoacetamido)acetamido)-5-benzyl-2-(3-guanidinopropyl)-11-((R)-1-hydroxyethyl)-3,6,9,12,18,22-hexaoxo-1,4,7,10,13,17-hexaazacyclodocosane-14-carbonyl)-L-threonyl-ADM(22-52)] (H-GGERFGT[Dab]TVQKLAHQIYQFTDKDKDNVAPRSKISPQGY-NH2; lactam 3-8), the half-maximal effective concentration (EC50) came to 41 nM.

Consider `CCCCCCCCCCCCCCCC(=O)NCCCC[C@H](N)C(=O)NCC(=O)N[C@H]1CNC(=O)CC[C@@H](C(=O)N[C@H](C(=O)N[C@H](C(=O)N[C@@H](CCC(N)=O)C(=O)N[C@@H](CCCCN)C(=O)N[C@@H](CC(C)C)C(=O)N[C@@H](C)C(=O)N[C@@H](Cc2c[nH]cn2)C(=O)N[C@@H](CCC(N)=O)C(=O)N[C@H](C(=O)N[C@@H](Cc2ccc(O)cc2)C(=O)N[C@@H](CCC(N)=O)C(=O)N[C@@H](Cc2ccccc2)C(=O)N[C@H](C(=O)N[C@@H](CC(=O)O)C(=O)N[C@@H](CCCCN)C(=O)N[C@@H](CC(=O)O)C(=O)N[C@@H](CCCCN)C(=O)N[C@@H](CC(=O)O)C(=O)N[C@@H](CC(N)=O)C(=O)N[C@H](C(=O)N[C@@H](C)C(=O)N2CCC[C@H]2C(=O)N[C@@H](CCCNC(=N)N)C(=O)N[C@@H](CO)C(=O)N[C@@H](CCCCN)C(=O)N[C@H](C(=O)N[C@@H](CO)C(=O)N2CCC[C@H]2C(=O)N[C@@H](CCC(N)=O)C(=O)NCC(=O)N[C@@H](Cc2ccc(O)cc2)C(N)=O)[C@@H](C)CC)C(C)C)[C@@H](C)O)[C@@H](C)CC)C(C)C)[C@@H](C)O)NC(=O)[C@H]([C@@H](C)O)NC(=O)CNC(=O)[C@H](Cc2ccccc2)NC(=O)[C@H](CCCNC(=N)N)NC1=O` [Example 18, ((3S,9S,12S,15S,21S)-15-(2-((S)-2-amino-6-palmitamidohexanamido)acetamido)-9-benzyl-12-(3-guanidinopropyl)-3-((R)-1-hydroxyethyl)-2,5,8,11,14,18-hexaoxo-1,4,7,10,13,17-hexaazacyclohenicosane-21-carbonyl)-L-threonyl-ADM(22-52)] (H-K(Palmitoyl)G[Dap]RFGTETVQKLAHQIYQFTDKDKDNVAPRSKISPQGY-NH2; lactam 3-8), for which the response was half-maximal at 2 nM (EC50).
